ChEMBL document CHEMBL3997821, “Design, synthesis and evaluation of novel pyrazolo-pyrimido[4,5-d]pyrimidine derivatives as potent antibacterial and biofilm inhibitors” (Bioorg Med Chem Lett, 2017)
In brackets after ≈: the same amount, converted by molar mass. Activity calls are given as the source filed them. No cut-off for these calls is given here.

Assays:
[1] = tested on: Bacillus subtilis; experiment: Antibacterial activity against Bacillus subtilis MTCC 121 after 24 hrs by well diffusion method; assay type: functional; conditions: MTCC 121, 24 h
[2] = tested on: Micrococcus luteus; experiment: Induction of membrane permeability in Micrococcus luteus MTCC 2470 assessed as protein leakage at 1 to 2 times antibacterial MIC after 12 to 24 hrs by Bradford protein assay; assay type: functional
[3] = tested on: Staphylococcus aureus; experiment: Antibacterial activity against Staphylococcus aureus MTCC 96 after 24 hrs by well diffusion method; assay type: functional; conditions: MTCC 96, 24 h
[4] = tested on: Staphylococcus aureus; experiment: Antibiofilm activity against Staphylococcus aureus MTCC 96 after 24 hrs by crystal violet staining based assay; assay type: functional; conditions: MTCC 96, 24 h
[5] = tested on: Micrococcus luteus; experiment: Induction of ROS generation in Micrococcus luteus MTCC 2470 mature biofilms at 0.5 to 2 ug/ml after 24 hrs by DCFH-DA staining based fluorometric assay; assay type: functional
[6] = tested on: Micrococcus luteus; experiment: Antibiofilm activity against Micrococcus luteus MTCC 2470 after 24 hrs by crystal violet staining based assay; assay type: functional; conditions: MTCC 2470, 24 h
[7] = tested on: Staphylococcus aureus; experiment: Antibiofilm activity against Staphylococcus aureus MLS16 MTCC 2940 after 24 hrs by crystal violet staining based assay; assay type: functional; conditions: MLS16 MTCC 2940, 24 h
[8] = tested on: Bacillus subtilis; experiment: Bactericidal activity against Bacillus subtilis MTCC 121 after 24 hrs by serial dilution method; assay type: functional; conditions: MTCC 121, 24 h
[9] = tested on: Pseudomonas aeruginosa; experiment: Antibacterial activity against Pseudomonas aeruginosa MTCC 2453 after 24 hrs by well diffusion method; assay type: functional; conditions: MTCC 2453, 24 h
[10] = tested on: Micrococcus luteus; experiment: Bactericidal activity against Micrococcus luteus MTCC 2470 after 24 hrs by serial dilution method; assay type: functional; conditions: MTCC 2470, 24 h
[11] = tested on: Escherichia coli; experiment: Antibacterial activity against Escherichia coli MTCC 739 after 24 hrs by well diffusion method; assay type: functional; conditions: MTCC 739, 24 h
[12] = tested on: Micrococcus luteus; experiment: Induction of membrane permeability in Micrococcus luteus MTCC 2470 assessed as protein leakage at 1 to 2 times antibacterial MIC up to 12 hrs by Bradford protein assay; assay type: functional
[13] = tested on: Staphylococcus aureus; experiment: Ratio of MBC to MIC for Staphylococcus aureus MTCC 96; assay type: functional
[14] = tested on: Staphylococcus aureus; experiment: Bactericidal activity against Staphylococcus aureus MTCC 96 after 24 hrs by serial dilution method; assay type: functional; conditions: MTCC 96, 24 h
[15] = tested on: Staphylococcus aureus; experiment: Bactericidal activity against Staphylococcus aureus MLS16 MTCC 2940 after 24 hrs by serial dilution method; assay type: functional; conditions: MLS16 MTCC 2940, 24 h
[16] = tested on: Bacillus subtilis; experiment: Antibiofilm activity against Bacillus subtilis MTCC 121 after 24 hrs by crystal violet staining based assay; assay type: functional; conditions: MTCC 121, 24 h
[17] = tested on: Micrococcus luteus; experiment: Antibacterial activity against Micrococcus luteus MTCC 2470 after 24 hrs by well diffusion method; assay type: functional; conditions: MTCC 2470, 24 h
[18] = tested on: Raoultella planticola; experiment: Antibacterial activity against Klebsiella planticola MTCC 530 after 24 hrs by well diffusion method; assay type: functional; conditions: MTCC 530, 24 h
[19] = tested on: Micrococcus luteus; experiment: Ratio of MBC to MIC for Micrococcus luteus MTCC 2470; assay type: functional
[20] = tested on: Micrococcus luteus; experiment: Induction of intracellular ROS accumulation in Micrococcus luteus MTCC 2470 sessile biofilm cells at 0.5 to 4 ug/ml after 24 hrs by DCFH-DA staining-based assay; assay type: functional, cell-based
[21] = tested on: Staphylococcus aureus; experiment: Antibacterial activity against Staphylococcus aureus MLS16 MTCC 2940 after 24 hrs by well diffusion method; assay type: functional; conditions: MLS16 MTCC 2940, 24 h

MIC [1]: 7.8 µg/mL (≈ 14.5 µM)
MIC [3]: 7.8 µg/mL (≈ 14.5 µM)
IC50 [4]: 3.9 µg/mL (≈ 7.26 µM)
IC50 [6]: 1.8 µg/mL (≈ 3.35 µM)
IC50 [7]: 4.4 µg/mL (≈ 8.19 µM)
MIC [9]: > 125 µg/mL
MIC [11]: > 125 µg/mL
IC50 [16]: 4.1 µg/mL (≈ 7.63 µM)
MIC [17]: 3.9 µg/mL (≈ 7.26 µM)
MIC [21]: 7.8 µg/mL (≈ 14.5 µM)
SMILES: Cc1ccc(-c2nn(-c3ccccc3)cc2C2c3c(n(C)c(=O)n(C)c3=O)N=CN2c2ccc(Cl)cc2)cc1 (stereo unspecified)
Activity [2]: Active
Activity [5]: Active
MBC [8]: 7.8 µg/mL (≈ 14.5 µM)
MBC [10]: 15.6 µg/mL (≈ 29 µM)
Activity [12]: inactive
Ratio [13]: 2
MBC [14]: 7.8 µg/mL (≈ 14.5 µM)
MBC [15]: 31.2 µg/mL (≈ 58.1 µM)
MIC [18]: > 125 µg/mL
Ratio [19]: 2
Activity [20]: Active
